These compounds were tested on NL-RLuc virus (assay: Inhibition of HIV replication (NL-RLuc virus, luciferase readout in MT-2 cells)). Details: Human immunodeficiency virus 1, MT2, 120 h, MT-2 cells infected with NL-RLuc virus, 5 days of incubation, 10% FBS, at least 2 experiments.
Type: cell-based
How it was run: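 EC50 derived via median effect equation from at least 2 experiments, using luciferase expression as virus-growth readout. Replication-competent NL-RLuc reporter virus (nef partly replaced by Renilla luciferase) infected MT-2 cells with serial compound dilutions; 5-day incubation in RPMI 1640 plus 10% FBS.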

Row | SMILES | EC50 [nM]
1 | Cc1nc(-n2nc3c(c2N)CCC3)c(-c2ccc(OCCc3ccc(F)cc3)cc2)c(N2CCC(C)(C)CC2)c1[C@H](OC(C)(C)C)C(=O)O [Example 76, (S)-2-(6-(3-Amino-5,6-dihydrocyclopenta[c]pyrazol-2(4H)-yl)-4-(4,4-dimethylpiperidin-1-yl)-5-(4-(4-fluorophenethoxy)phenyl)-2-methylpyridin-3-yl)-2-(tert-butoxy)acetic acid] | 4
2 | COc1ccc(CCOc2ncc(-c3cnc(C)c([C@H](OC(C)(C)C)C(=O)O)c3N3CCC(C)(C)CC3)cc2F)cc1C [Example 391, (2S)-2-(tert-butoxy)-2-[4-(4,4-dimethylpiperidin-1-yl)-5′-fluoro-6′-[2-(4-methoxy-3-methylphenyl)ethoxy]-6-methyl-[3,3′-bipyridine]-5-yl]acetic acid] | 4
3 | Cc1nc(-c2ccn(C)c2)c(-c2ccc(OCCc3ccc(F)cc3)cc2)c(N2CCC(C)(C)CC2)c1[C@H](OC(C)(C)C)C(=O)O [Example 48, (S)-2-(tert-Butoxy)-2-(4-(4,4-dimethylpiperidin-1-yl)-5-(4-(4-fluorophenethoxy)phenyl)-2-methyl-6-(1-methyl-1H-pyrrol-3-yl)pyridin-3-yl)acetic acid] | 3
4 | Cc1nc(CN2CCC3(CCC3)CC2)c(-c2ccc(F)cc2)c(N2CCC(C)(C)CC2)c1[C@H](OC(C)(C)C)C(=O)O [Example 191, (2S)-2-[6-({7-Azaspiro[3.5]nonan-7-yl}methyl)-4-(4,4-dimethylpiperidin-1-yl)-5-(4-fluorophenyl)-2-methylpyridin-3-yl]-2-(tert-butoxy)acetic acid] | 2
5 | Cc1ncc(-c2ccc(N(C)C)nc2)c(N2CCC(C)(C)CC2)c1[C@H](OC(C)(C)C)C(=O)O [Example 111, (S)-2-(tert-Butoxy)-2-(6′-(dimethylamino)-4-(4,4-dimethylpiperidin-1-yl)-6-methyl-[3, 3′-bipyridin]-5-yl)acetic acid] | 2
6 | Cc1nc(N)c(-c2cnc(OCCc3ccccc3F)c(F)c2)c(N2CCC(C)(C)CC2)c1[C@H](OC(C)(C)C)C(=O)O [Example 117, (S)-2-(2-Amino-4-(4,4-dimethylpiperidin-1-yl)-5′-fluoro-6′-(2-fluorophenethoxy)-6-methyl-[3, 3′-bipyridin]-5-yl)-2-(tert-butoxy)acetic acid] | 1
7 | COc1cccc(-c2cnc(C)c([C@H](OC(C)(C)C)C(=O)O)c2N2CCC(C)(C)CC2)c1 [Example 168, (2S)-2-(tert-Butoxy)-2-[4-(4,4-dimethylpiperidin-1-yl)-5-(3-methoxyphenyl)-2-methylpyridin-3-yl]acetic acid] | 4
8 | Cc1ncc(-c2ccc(OCc3ccccc3F)cn2)c(N2CCC(C)(C)CC2)c1[C@H](OC(C)(C)C)C(=O)O [Example 348, (2S)-2-(tert-butoxy)-2-[4′-(4,4-dimethylpiperidin-1-yl)-5-[(2-fluorophenyl)methoxy]-6′-methyl-[2,3′-bipyridine]-5′-yl]acetic acid] | 0.6
9 | COc1cccc(-c2cnc(C)c([C@H](OC(C)(C)C)C(=O)O)c2N2CCC(C)(C)CC2)c1Cl [Example 161, (2S)-2-(tert-Butoxy)-2-[5-(2-chloro-3-methoxyphenyl)-4-(4,4-dimethylpiperidin-1-yl)-2-methylpyridin-3-yl]acetic acid] | 9
10 | Cc1cccc(CCOc2ccc(-c3cnc(C)c([C@H](OC(C)(C)C)C(=O)O)c3N3CCC(C)(C)CC3)nc2)c1 [Example 290, (2S)-2-(tert-butoxy)-2-[4′-(4,4-dimethylpiperidin-1-yl)-6′-methyl-5-[2-(3-methylphenyl)ethoxy]-[2,3′-bipyridine]-5′-yl]acetic acid] | 1
11 | Cc1ncc(-c2ccc(OCCc3cc(F)c(F)cc3F)cn2)c(N2CCC(C)(C)CC2)c1[C@H](OC(C)(C)C)C(=O)O [Example 353, (2S)-2-(tert-butoxy)-2-[4′-(4,4-dimethylpiperidin-1-yl)-6′-methyl-5-[2-(2,4,5-trifluorophenyl)ethoxy]-[2,3′-bipyridine]-5′-yl]acetic acid] | 0.8
12 | CCCCCOc1ccc(-c2cnc(C)c([C@H](OC(C)(C)C)C(=O)O)c2N2CCC(C)(C)CC2)cn1 [Example 408, (S)-2-(tert-Butoxy)-2-(4-(4,4-dimethylpiperidin-1-yl)-6-methyl-6′-(pentyloxy)-[3, 3′-bipyridin]-5-yl)acetic acid] | 2
13 | COc1ccc(CCOc2ncc(-c3cnc(C)c([C@H](OC(C)(C)C)C(=O)O)c3N3CCC(C)(C)CC3)cc2F)cc1 [Example 374, (2S)-2-(tert-butoxy)-2-[4-(4,4-dimethylpiperidin-1-yl)-5′-fluoro-6′-[2-(4-methoxyphenyl)ethoxy]-6-methyl-[3,3′-bipyridine]-5-yl]acetic acid] | 0.3
14 | CCCCCOc1ncc(-c2cnc(C)c([C@H](OC(C)(C)C)C(=O)O)c2N2CCC(C)(C)CC2)cc1F [Example 407, (2S)-2-(tert-butoxy)-2-[4-(4,4-dimethylpiperidin-1-yl)-5′-fluoro-6-methyl-6′-(pentyloxy)-[3,3′-bipyridine]-5-yl]acetic acid] | 4
15 | Cc1cc(F)ccc1CCOc1ncc(-c2cnc(C)c([C@H](OC(C)(C)C)C(=O)O)c2N2CCC(C)(C)CC2)cc1F [Example 398, (2S)-2-(tert-butoxy)-2-[4-(4,4-dimethylpiperidin-1-yl)-5′-fluoro-6′-[2-(4-fluoro-2-methylphenyl)ethoxy]-6-methyl-[3,3′-bipyridine]-5-yl]acetic acid] | 2
16 | Cc1ncc(-c2cccc(C(N)=O)c2)c(N2CCC(C)(C)CC2)c1[C@H](OC(C)(C)C)C(=O)O [Example 146, (2S)-2-(tert-Butoxy)-2-[5-(3-carbamoylphenyl)-4-(4,4-dimethylpiperidin-1-yl)-2-methylpyridin-3-yl]acetic acid] | 142
17 | Cc1ncc(-c2ccc(O[C@@H](C)C(C)C)cc2)c(N2CCC(C)(C)CC2)c1[C@H](OC(C)(C)C)C(=O)O [Example 363, (2S)-2-(tert-butoxy)-2-[4-(4,4-dimethylpiperidin-1-yl)-2-methyl-5-(4-{[(2S)-3-methylbutan-2-yl]oxy}phenyl)pyridin-3-yl]acetic acid] | 13
18 | Cc1ncc(-c2cnc(OCCc3ccc(Cl)cc3Cl)c(F)c2)c(N2CCC(C)(C)CC2)c1[C@H](OC(C)(C)C)C(=O)O [Example 234, (S)-2-(tert-Butoxy)-2-(6′-(2,4-dichlorophenethoxy)-4-(4,4-dimethylpiperidin-1-yl)-5′-fluoro-6-methyl-[3, 3′-bipyridin]-5-yl)acetic acid] | 4
19 | COc1cnc(-c2cnc(C)c([C@H](OC(C)(C)C)C(=O)O)c2N2CCC(C)(C)CC2)nc1 [Example 228, (S)-2-(tert-Butoxy)-2-(4-(4,4-dimethylpiperidin-1-yl)-5-(5-methoxypyrimidin-2-yl)-2-methylpyridin-3-yl)acetic acid] | 52
20 | Cc1ncc(-c2cc(F)c(CNc3ncnc4c3oc3ccccc34)c(F)c2)c(N2CCC(C)(C)CC2)c1[C@H](OC(C)(C)C)C(=O)O [Example 219, (S)-2-(5-(4-((Benzofuro[3,2-d]pyrimidin-4-ylamino)methyl)-3,5-difluorophenyl)-4-(4,4-dimethylpiperidin-1-yl)-2-methylpyridin-3-yl)-2-(tert-butoxy)acetic acid] | 2
21 | Cc1cccc(Cl)c1COc1ccc(-c2cnc(C)c([C@H](OC(C)(C)C)C(=O)O)c2N2CCC(C)(C)CC2)nc1 [Example 283, (S)-2-(tert-Butoxy)-2-(5-((2-chloro-6-methylbenzyl)oxy)-4′-(4,4-dimethylpiperidin-1-yl)-6′-methyl-[2, 3′-bipyridin]-5′-yl)acetic acid] | 3
22 | Cc1ncc(-c2ccc(OCCc3ccc(F)c(Cl)c3)cn2)c(N2CCC(C)(C)CC2)c1[C@H](OC(C)(C)C)C(=O)O [Example 307, (2S)-2-(tert-butoxy)-2-{5-[2-(3-chloro-4-fluorophenyl)ethoxy]-4′-(4,4-dimethylpiperidin-1-yl)-6′-methyl-[2,3′-bipyridine]-5′-yl}acetic acid] | 1
23 | Cc1nc(Nc2cncnc2)c(-c2ccc(OCCc3ccc(F)cc3)cc2)c(N2CCC(C)(C)CC2)c1[C@H](OC(C)(C)C)C(=O)O [Example 66, (S)-2-(tert-Butoxy)-2-(4-(4,4-dimethylpiperidin-1-yl)-5-(4-(4-fluorophenethoxy)phenyl)-2-methyl-6-(pyrimidin-5-ylamino)pyridin-3-yl)acetic acid] | 2
24 | Cc1nc(-c2cccnc2)c(-c2ccc(OCCc3ccc(F)cc3)cc2)c(N2CCC(C)(C)CC2)c1[C@H](OC(C)(C)C)C(=O)O [Example 41, (S)-2-(tert-Butoxy)-2-(4-(4,4-dimethylpiperidin-1-yl)-3-(4-(4-fluorophenethoxy)phenyl)-6-methyl-[2, 3′-bipyridin]-5-yl)acetic acid] | 4
25 | COc1cccc(CCOc2ncc(-c3cnc(C)c([C@H](OC(C)(C)C)C(=O)O)c3N3CCC(C)(C)CC3)cc2F)c1 [Example 383, (2S)-2-(tert-butoxy)-2-[4-(4,4-dimethylpiperidin-1-yl)-5′-fluoro-6′-[2-(3-methoxyphenyl)ethoxy]-6-methyl-[3,3′-bipyridine]-5-yl]acetic acid] | 3
26 | Cc1ncc(-c2ccc(OCCc3ccc(F)c(F)c3)cn2)c(N2CCC(C)(C)CC2)c1[C@H](OC(C)(C)C)C(=O)O [Example 299, (2S)-2-(tert-butoxy)-2-{5-[2-(3,4-difluorophenyl)ethoxy]-4′-(4,4-dimethylpiperidin-1-yl)-6′-methyl-[2,3′-bipyridine]-5′-yl}acetic acid] | 1
27 | Cc1ccccc1-c1cnc(C)c([C@H](OC(C)(C)C)C(=O)O)c1N1CCC(C)(C)CC1 [Example 137, (2S)-2-(tert-Butoxy)-2-[4-(4,4-dimethylpiperidin-1-yl)-2-methyl-5-(2-methylphenyl)pyridin-3-yl]acetic acid] | 53

Same assay, conditions: MT-2 cells infected with NL-RLuc virus, 5 days of incubation, 10% FBS, at least 2 experiments

Row | SMILES | EC50 [nM]
28 | Cc1nc(C(C)(C)O)c(-c2ccc(OCCc3ccc(F)cc3)c(F)c2)c(N2CCC(C)(C)CC2)c1[C@H](OC(C)(C)C)C(=O)O (single isomer, unassigned) [Example 243] | 7
